Laboratory results published in patent publication US6713607B2 (Wyeth, priority 1994, dated 2004).
Blank lines part the entries; values can stand above or below the compound they belong to.

Tests used:
[1] = test system: mitogen-stimulated thymocyte proliferation; assay: LAF, mitogen-stimulated thymocyte proliferation assay; format: cell-based, murine
210 kDa Protein [2] = target: T1, 210 kDa Protein (Homo sapiens, UniProt P42345+P62942); assay: Affinity isolation of the 210 kDa protein from Molt 4 membrane preparations with GST-FKBP12 complexed to rapamycin or analog (binding of analog-FKBP12 complexes); conditions: isolation procedure of Example 1, Molt 4 cells
T1 construct: These proteins are isolated from membrane preparations of Molt 4 T cell leukemia; endogenous in cells; host or cells: Molt 4 cells (CHAPSO-solubilized membrane fraction); The partner GST-FKBP12 was made in house in recombinant E. coli (pGEX-FKBP)
T1 sequence (P62942 whole entry, other chains not shown): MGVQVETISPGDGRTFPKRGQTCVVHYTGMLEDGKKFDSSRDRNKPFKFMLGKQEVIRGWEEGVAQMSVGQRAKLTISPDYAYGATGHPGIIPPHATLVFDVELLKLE
Experimental: Molt 4 cells (1×10^9) were grown in standard media (RPMI 1640 containing 100 U/ml pennicillin, 100 ug/ml L-glutamine, 10% FCS). The cells were harvested and rinsed 3× with PBS (50 mM phosphate buffer, pH 7.0, 150 mM NaCl), flash frozen in dry-ice ethanol bath and stored at −80° C. On ice, the cells were thawed and lysed using a dounce homogenizer with B pestle in 5 ml of buffer A (10 mM Hepes, pH 7.5, 20 mM KCl, 1 mM EDTA, 0.4 mM PMSF and 2 mM 2-ME). After the debris was cleared by centrifugation at 1600 g for 10 min. and the membrane fraction was concentrated by 100,000 g centrifugation (1 hour), the 100,000 g pellet was incubated in 3 ml buffer B (50 mM Tris, pH 7.2, 100 mM NaCl, 20 mM KCl, 0.2 mM PMSF, 1 mM 2-ME, 2 mM CaCl2, 2 mM MgCl2, 5 μg/ml aprotinin, leupeptin, pepstatin A and antipain), containing 12 mM CHAPSO for two hours at 4° C. The solubilized membrane proteins were separated from the debris by a 100,000 g centrifugation. […] The supernatant was then incubated for 2 hours at 4° C. with 100 ul glutathione resin (1:1 Buffer B). Nonspecific proteins were rinsed 5× with buffer C (buffer B+0.1% Triton×100) and the proteins eluted from the resin in Laemli buffer by incubation at 95° C. for 3 minutes and microcentrifugation. The proteins were separated by size using a 7% SDS-PAGE followed by silver stain.

FKBP12 = FKBP12 (Homo sapiens, UniProt P62942); assay: Inhibition of PPIase activity of FKBP12; format: biochemical; conditions: read-out: PPlase(Ki)
Sequence of FKBP12 (P62942 whole entry, species assumed): as the sequence (P62942 whole entry, other chains not shown) above

210 kDa Protein [3] = target: 210 kDa Protein (Homo sapiens, UniProt P42345); assay: Modified isolation procedure: no exogenous FKBP, streptavidin-conjugated resin in place of glutathione resin; format: binding

SMILES: C=CC[C@@H]1/C=C(\C)C[C@H](C)C[C@H](OC)[C@H]2O[C@@](O)(C(=O)C(=O)N3CCCC[C@H]3C(=O)O[C@H](/C(C)=C/[C@@H]3CC[C@@H](O)[C@H](OC)C3)[C@H](C)[C@@H](O)CC1=O)[C@H](C)C[C@@H]2OC [FK506]
IC50 ([1]; Mus musculus, Thymocyte): 3 nM

SMILES: CO[C@H]1C[C@@H]2CC[C@@H](C)[C@@](O)(O2)C(=O)C(=O)N2CCCC[C@H]2C(=O)O[C@H]([C@H](C)C[C@@H]2CC[C@@H](O)[C@H](OC)C2)CC(=O)[C@H](C)/C=C(\C)[C@@H](O)[C@@H](OC)C(=O)[C@H](C)C[C@H](C)/C=C/C=C/C=C/1C [RAPA, Rapamycin]
IC50 ([1]; Mus musculus, Thymocyte): 6 nM

210 kDa protein isolated with compound:GST-FKBP12 complex (in words) (210 kDa Protein [2]): same proteins were isolated | Ki (FKBP12): 4.4 nM
SMILES: COC1CC2CCC(C)C(O)(O2)C(=O)C(=O)N2CCCCC2C(=O)OC(C(C)CC2CCC(O)C(OC)C2)CC(=O)C(C)/C=C(\C)C(O)CC(=O)C(C)CC(C)/C=C/C=C/C=C/1C (stereo not shown) [demethoxyrapamycin]
IC50 ([1]; mitogen-stimulated thymocyte proliferation, FK506: mechanism of action is different): 58 nM

SMILES: COC1CC2CCC(C)C(O)(O2)C(=O)C(=O)N2CCCCC2C(=O)OC(C(C)CC2CCC(OC(=O)CNC(=O)CCCCC3SCC4NC(=O)NC43)C(OC)C2)CC(=O)C(C)C=C(C)C(O)C(OC)C(=O)C(C)CC(C)C=CC=CC=C1C (stereo not shown) [rapamycin-42-biotin glycinate ester]
210 kDa protein isolated by modified procedure (in words) (210 kDa Protein [3]): Only background levels | immunosuppressive activity in the LAF assay (in words) [1]: equivalent immunosuppressive activity
